Laboratory results reported in patent US9828378B2, “Kinase inhibitors and methods of use” (Intellikine LLC, priority 2008, dated 2017).
Where two headings read alike, the source gives them in different places.

How the values were obtained:
Assay type in all cases: biochemical
[1] = target: PI3K β (Homo sapiens (Human), UniProt P42338); assay: PI3K β inhibition assay
[2] = target: mTORC (Homo sapiens (Human), UniProt P42345); assay: mTOR kinase inhibition assay; settings: Table 1; read-out: mTORC IC50
[3] = target: PI3K α (Homo sapiens (Human), UniProt P42336); assay: PI3K α inhibition assay; settings: Table 1; read-out: PI3K α IC50
Chain of PI3K α (P42336 whole entry): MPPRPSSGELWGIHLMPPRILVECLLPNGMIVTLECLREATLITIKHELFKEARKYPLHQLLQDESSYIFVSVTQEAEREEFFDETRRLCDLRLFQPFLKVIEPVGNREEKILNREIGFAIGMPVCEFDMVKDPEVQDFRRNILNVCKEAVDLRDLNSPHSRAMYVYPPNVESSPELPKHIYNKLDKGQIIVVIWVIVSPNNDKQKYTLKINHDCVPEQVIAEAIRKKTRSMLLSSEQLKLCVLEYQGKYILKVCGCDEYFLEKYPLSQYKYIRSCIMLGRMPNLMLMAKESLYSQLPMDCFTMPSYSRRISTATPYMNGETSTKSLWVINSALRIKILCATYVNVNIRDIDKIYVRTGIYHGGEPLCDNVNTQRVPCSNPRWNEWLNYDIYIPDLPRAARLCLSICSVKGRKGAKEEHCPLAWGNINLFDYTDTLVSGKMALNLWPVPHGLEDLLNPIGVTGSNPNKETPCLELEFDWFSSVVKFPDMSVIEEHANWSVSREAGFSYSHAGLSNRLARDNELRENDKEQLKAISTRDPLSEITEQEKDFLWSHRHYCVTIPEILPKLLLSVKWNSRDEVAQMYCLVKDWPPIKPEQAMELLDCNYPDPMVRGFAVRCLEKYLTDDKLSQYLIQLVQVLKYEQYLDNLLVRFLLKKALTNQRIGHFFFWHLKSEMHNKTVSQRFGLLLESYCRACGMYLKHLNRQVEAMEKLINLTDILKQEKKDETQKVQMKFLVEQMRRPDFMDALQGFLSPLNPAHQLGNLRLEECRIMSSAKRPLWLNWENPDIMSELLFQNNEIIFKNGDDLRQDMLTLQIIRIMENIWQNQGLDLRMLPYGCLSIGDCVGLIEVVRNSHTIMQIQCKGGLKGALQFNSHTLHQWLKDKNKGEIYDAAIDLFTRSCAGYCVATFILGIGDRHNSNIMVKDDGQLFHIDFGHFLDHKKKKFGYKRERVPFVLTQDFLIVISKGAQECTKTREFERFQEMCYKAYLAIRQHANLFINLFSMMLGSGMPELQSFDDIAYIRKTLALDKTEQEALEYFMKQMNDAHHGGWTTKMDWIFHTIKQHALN
Chain of PI3K α (P27986 whole entry partner): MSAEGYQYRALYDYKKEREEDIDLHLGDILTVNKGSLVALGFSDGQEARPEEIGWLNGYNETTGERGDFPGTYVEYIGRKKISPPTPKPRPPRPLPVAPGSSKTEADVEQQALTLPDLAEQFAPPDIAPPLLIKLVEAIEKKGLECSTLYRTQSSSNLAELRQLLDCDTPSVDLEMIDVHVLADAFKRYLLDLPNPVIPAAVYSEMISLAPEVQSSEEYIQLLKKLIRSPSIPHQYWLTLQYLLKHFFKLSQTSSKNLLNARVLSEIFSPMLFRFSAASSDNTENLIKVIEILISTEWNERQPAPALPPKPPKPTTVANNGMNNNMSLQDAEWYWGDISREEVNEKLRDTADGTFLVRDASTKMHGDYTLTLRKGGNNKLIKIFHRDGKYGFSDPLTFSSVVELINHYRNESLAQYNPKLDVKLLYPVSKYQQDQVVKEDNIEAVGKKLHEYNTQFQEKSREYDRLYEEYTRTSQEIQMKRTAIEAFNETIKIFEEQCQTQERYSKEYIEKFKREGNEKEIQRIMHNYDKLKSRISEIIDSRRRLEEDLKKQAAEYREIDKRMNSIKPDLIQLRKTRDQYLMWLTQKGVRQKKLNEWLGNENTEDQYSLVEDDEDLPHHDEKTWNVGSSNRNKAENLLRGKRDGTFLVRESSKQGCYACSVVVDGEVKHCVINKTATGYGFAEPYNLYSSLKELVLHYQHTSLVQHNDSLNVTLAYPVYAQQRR

[4] = target: PI3K γ (Homo sapiens (Human), UniProt P48736); assay: PI3K γ inhibition assay; settings: Table 1; read-out: PI3K γ IC50
Chain of PI3K γ (P48736 whole entry): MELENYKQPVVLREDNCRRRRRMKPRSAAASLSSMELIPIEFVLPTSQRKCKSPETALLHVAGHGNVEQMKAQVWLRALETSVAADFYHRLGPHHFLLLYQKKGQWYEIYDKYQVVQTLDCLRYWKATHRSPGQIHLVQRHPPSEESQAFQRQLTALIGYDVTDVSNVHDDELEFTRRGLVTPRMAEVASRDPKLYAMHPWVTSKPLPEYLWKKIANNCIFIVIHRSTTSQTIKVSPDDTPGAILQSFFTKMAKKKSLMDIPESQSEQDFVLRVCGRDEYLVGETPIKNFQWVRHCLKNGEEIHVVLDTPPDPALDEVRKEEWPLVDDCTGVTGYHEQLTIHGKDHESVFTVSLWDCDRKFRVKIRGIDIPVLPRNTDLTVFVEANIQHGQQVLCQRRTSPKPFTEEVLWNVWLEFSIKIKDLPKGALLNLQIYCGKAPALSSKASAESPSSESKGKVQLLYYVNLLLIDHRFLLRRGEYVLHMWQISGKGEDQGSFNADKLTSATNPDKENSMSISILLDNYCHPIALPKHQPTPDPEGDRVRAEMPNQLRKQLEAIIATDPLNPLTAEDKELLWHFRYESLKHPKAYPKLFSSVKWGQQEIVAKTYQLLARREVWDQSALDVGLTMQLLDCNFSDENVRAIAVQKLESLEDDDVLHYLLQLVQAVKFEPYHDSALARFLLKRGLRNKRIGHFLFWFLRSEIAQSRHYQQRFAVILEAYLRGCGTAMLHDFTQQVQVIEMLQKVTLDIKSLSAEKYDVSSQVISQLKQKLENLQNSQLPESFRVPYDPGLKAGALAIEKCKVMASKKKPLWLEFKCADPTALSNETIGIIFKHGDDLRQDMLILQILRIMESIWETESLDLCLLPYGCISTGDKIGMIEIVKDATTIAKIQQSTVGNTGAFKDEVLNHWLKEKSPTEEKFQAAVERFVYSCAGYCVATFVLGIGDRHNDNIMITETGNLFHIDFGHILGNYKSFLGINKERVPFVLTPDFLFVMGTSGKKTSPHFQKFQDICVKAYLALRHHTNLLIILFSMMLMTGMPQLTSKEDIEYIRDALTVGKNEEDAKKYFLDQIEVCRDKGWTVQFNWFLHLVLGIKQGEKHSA

[5] = target: PI3K δ (Homo sapiens (Human), UniProt O00329); assay: PI3K δ inhibition assay; settings: Table 1; read-out: PI3K δ IC50
Chain of PI3K δ (O00329 whole entry): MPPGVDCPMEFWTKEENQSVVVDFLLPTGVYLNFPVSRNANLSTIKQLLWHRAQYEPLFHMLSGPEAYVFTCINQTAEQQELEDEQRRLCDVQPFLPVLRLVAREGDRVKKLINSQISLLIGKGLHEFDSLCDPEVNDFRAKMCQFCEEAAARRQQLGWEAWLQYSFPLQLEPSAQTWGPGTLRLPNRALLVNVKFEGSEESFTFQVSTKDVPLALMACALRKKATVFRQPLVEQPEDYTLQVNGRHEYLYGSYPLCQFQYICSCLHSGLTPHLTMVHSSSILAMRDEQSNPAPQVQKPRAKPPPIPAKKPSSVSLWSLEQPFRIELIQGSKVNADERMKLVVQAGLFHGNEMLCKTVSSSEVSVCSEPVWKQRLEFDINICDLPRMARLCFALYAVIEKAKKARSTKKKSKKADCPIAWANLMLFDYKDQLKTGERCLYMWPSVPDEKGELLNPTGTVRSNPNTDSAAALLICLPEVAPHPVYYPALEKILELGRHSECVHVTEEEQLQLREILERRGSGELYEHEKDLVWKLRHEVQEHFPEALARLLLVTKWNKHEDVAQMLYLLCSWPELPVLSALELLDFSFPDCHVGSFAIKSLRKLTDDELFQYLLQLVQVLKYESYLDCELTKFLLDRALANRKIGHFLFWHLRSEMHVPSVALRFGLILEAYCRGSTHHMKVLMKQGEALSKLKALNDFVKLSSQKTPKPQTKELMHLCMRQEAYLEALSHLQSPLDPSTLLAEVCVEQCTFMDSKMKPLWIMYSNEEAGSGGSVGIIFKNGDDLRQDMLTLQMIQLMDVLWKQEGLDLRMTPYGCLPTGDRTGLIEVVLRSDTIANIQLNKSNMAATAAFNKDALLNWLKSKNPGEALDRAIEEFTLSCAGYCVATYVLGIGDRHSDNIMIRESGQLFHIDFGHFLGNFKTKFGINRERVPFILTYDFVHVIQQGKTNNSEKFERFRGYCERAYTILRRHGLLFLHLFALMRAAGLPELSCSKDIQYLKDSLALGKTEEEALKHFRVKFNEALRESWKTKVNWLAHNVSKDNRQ
Chain of PI3K δ (P27986 whole entry partner): as the sequence (P27986 whole entry partner) above

Chain of PI3K β (P42338 whole entry): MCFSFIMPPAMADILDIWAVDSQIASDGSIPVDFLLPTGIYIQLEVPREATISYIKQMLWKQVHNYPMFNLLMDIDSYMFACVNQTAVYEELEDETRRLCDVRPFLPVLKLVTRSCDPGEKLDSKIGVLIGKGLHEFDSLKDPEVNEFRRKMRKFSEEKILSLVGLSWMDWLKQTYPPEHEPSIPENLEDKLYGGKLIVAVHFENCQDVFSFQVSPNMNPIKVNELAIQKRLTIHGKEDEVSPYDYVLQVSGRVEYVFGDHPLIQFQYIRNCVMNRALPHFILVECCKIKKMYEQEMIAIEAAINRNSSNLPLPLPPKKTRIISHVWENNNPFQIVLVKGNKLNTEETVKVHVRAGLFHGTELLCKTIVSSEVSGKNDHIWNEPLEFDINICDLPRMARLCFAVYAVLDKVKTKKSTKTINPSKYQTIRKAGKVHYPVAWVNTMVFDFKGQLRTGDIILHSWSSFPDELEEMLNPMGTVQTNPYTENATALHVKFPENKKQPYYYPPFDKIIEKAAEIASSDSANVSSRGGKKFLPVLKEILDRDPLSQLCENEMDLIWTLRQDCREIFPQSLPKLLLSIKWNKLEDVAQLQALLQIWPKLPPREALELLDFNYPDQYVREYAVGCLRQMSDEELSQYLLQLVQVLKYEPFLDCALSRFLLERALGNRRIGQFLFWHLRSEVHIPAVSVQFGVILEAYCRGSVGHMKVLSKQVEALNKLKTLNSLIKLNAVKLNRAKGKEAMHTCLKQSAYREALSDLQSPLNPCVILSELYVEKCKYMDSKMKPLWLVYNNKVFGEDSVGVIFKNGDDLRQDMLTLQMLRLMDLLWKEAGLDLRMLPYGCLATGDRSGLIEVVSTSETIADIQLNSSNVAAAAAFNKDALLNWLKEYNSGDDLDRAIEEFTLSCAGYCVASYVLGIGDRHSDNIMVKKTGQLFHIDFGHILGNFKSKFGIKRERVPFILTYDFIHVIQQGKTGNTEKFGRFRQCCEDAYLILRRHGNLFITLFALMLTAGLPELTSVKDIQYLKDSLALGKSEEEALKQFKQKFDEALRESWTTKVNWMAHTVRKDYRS
Chain of PI3K β (P27986 whole entry partner): as the sequence (P27986 whole entry partner) above

IC50 [1]	Compound	IC50 [2]	IC50 [3]	IC50 [4]	IC50 [5]	IC50 ([1]; Table 1, read-out: PI3K β IC50)
≤ 50 nM	CNC(=O)Nc1nc2ccc(-c3cn(C(C)C)c4ncnc(N)c34)cc2s1 [Compound 22]	–	–	–	–	–
–	CC(C)n1nc(-c2cc3ccc(C#N)cc3[nH]2)c2c(N)ncnc21 [Compound 24]	> 500 nM	> 500 nM	–	–	–
–	CC(C)n1nc(-c2cc3ccc(C(N)=O)cc3[nH]2)c2c(N)ncnc21 [Compound 25]	< 500 nM	> 500 nM	–	–	–
–	Nc1ncnc2c1c(-c1cc3cc(O)ccc3[nH]1)nn2C1CCC1 [Compound 27]	< 25 nM	–	–	–	–
–	COc1cc2cc(-c3nn(C(C)C)c4ncnc(N)c34)[nH]c2cc1Cl [Compound 29]	> 500 nM	–	–	–	–
–	CC(C)n1nc(-c2cc3cc(O)c(Cl)cc3[nH]2)c2c(N)ncnc21 [Compound 32]	< 500 nM	> 500 nM	> 500 nM	> 500 nM	–
–	Nc1ncnc2c1c(-c1cc3cc(O)ccc3[nH]1)nn2CCN1CCOCC1 [Compound 33]	< 500 nM	> 500 nM	> 500 nM	> 500 nM	–
–	Nc1ncnc2c1c(-c1cc3cc(O)ccc3[nH]1)nn2CC(=O)N1CCOCC1 [Compound 34]	> 500 nM	> 500 nM	> 500 nM	> 500 nM	–
–	CNC(=O)Cn1nc(-c2cc3cc(O)ccc3[nH]2)c2c(N)ncnc21 [Compound 35]	> 500 nM	> 500 nM	> 500 nM	> 500 nM	–
–	Nc1ncnc2c1c(-c1cc3cccc(O)c3[nH]1)nn2C1CCCC1 [Compound 36]	< 10 nM	> 500 nM	< 100 nM	< 500 nM	–
–	CC(C)n1nc(-c2cc3c(O)cccc3[nH]2)c2c(N)ncnc21 [Compound 37]	> 500 nM	< 500 nM	< 500 nM	< 500 nM	–
–	Nc1ncnc2c1c(-c1cc3cc(O)ccc3[nH]1)nn2Cc1cccnc1 [Compound 38]	< 500 nM	> 500 nM	> 500 nM	> 500 nM	–
–	CC(C)n1nc(-c2cc3c(Cl)ccc(O)c3[nH]2)c2c(N)ncnc21 [Compound 39]	< 10 nM	> 500 nM	> 500 nM	> 500 nM	–
–	COCCn1nc(-c2cc3cc(O)ccc3[nH]2)c2c(N)ncnc21 [Compound 40]	< 100 nM	> 500 nM	> 500 nM	> 500 nM	–
–	CC(C)n1nc(-c2cc3cc(O)ccc3[nH]2)c2c(N)nccc21 [Compound 45]	> 500 nM	–	–	–	–
–	Nc1ncnc2c1c(-c1cc3cc(O)ccc3[nH]1)nn2C1CC(=O)C1 [Compound 53]	< 100 nM	> 500 nM	> 500 nM	–	> 500 nM
–	Nc1ncnc2c1c(-c1cc3cc(O)ccc3[nH]1)nn2C1CC(O)C1 (stereo not shown) [Compound 54]	< 25 nM	> 500 nM	> 500 nM	–	> 500 nM
–	CC(C)N1CCC(n2nc(-c3cc4cc(O)ccc4[nH]3)c3c(N)ncnc32)CC1 [Compound 55]	< 500 nM	> 500 nM	> 500 nM	–	> 500 nM
–	CC(C)N1CCC(n2nc(-c3cc4cc(O)cc(Cl)c4[nH]3)c3c(N)ncnc32)CC1 [Compound 56]	> 500 nM	> 500 nM	> 500 nM	–	> 500 nM
–	Nc1ncnc2c1c(-c1cc3cc(O)ccc3[nH]1)nn2C1CCC(N2CCOCC2)CC1 (stereo not shown) [Compound 57]	< 25 nM	> 500 nM	> 500 nM	–	> 500 nM
–	CN1CCN(C2CCC(n3nc(-c4cc5cc(O)ccc5[nH]4)c4c(N)ncnc43)CC2)CC1 (stereo not shown) [Compound 58]	> 500 nM	> 500 nM	> 500 nM	–	> 500 nM
–	COc1ccc2cc(-c3nn(C4CCOCC4)c4ncnc(N)c34)[nH]c2c1 [Compound 59]	> 500 nM	> 500 nM	> 500 nM	–	> 500 nM
–	Nc1ncnc2c1c(-c1cc3ccc(O)cc3[nH]1)nn2C1CCOCC1 [Compound 60]	< 100 nM	> 500 nM	< 100 nM	–	> 500 nM
